Assay results from PMC6766655, “AhR–ROR-γt complex is a therapeutic target for MAP4K3/GLK^highIL-17A^high subpopulation of systemic lupus erythematosus” (The FASEB Journal, 2019).

Key:
GLK kinase domain = molecular target: T1, GLK kinase domain (Homo sapiens, UniProt Q8IVH8); assay: In vitro GLK kinase assay with kinase-dead PKC-θ (K409W) as substrate; assay type: biochemical; conditions: GST-tagged kinase-dead PKC-θ (K409W) substrate; Fig. 3B
T1 construct: Recombinant proteins of GLK kinase domain plus recombinant proteins of GST-tagged kinase-dead PKC-θ (K409W) were subjected to in vitro kinase assays; made in house; host or cells: Escherichia coli (BL21)
T1 sequence (Q8IVH8 16-273 limits assumed): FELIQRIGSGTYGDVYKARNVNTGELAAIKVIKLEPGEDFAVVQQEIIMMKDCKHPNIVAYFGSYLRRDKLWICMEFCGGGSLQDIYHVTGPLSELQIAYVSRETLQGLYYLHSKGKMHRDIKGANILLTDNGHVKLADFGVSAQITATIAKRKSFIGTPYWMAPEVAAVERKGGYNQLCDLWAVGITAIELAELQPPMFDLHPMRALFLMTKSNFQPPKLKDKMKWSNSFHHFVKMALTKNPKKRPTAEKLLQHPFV
Experimental: GLK kinase activity was determined by measuring the rate of ADP production in the in vitro kinase reaction using ADP-Glo Kinase Assay Kit (Promega). For the kinase reaction, recombinant proteins of the GLK kinase domain (1 μg) were incubated with recombinant proteins of kinase-dead PKC-θ (K409W; 0.15 μg) plus ATP (0.1 mM) or myelin basic protein (MilliporeSigma) plus ATP (0.1 mM) in kinase buffer [40 mM Tris-HCl (pH 7.5), 20 mM MgCl2, 0.1 mg/ml bovine serum albumin, 10 mM DTT, and 0.1 mM Na3VO4] for 30 min at room temperature.
Cell-based high‐throughput screening was conducted against a representative library of 100,000 molecules at ∼10 μM. The Chinese hamster ovary CHO-K1 (ATCC, CCL-61) cells expressing GLK and NF-κB luciferase (Luc) reporter were used. The reaction volume was 5 μl (500 cells) per well in 1536‐well plates. There was no positive control. This high‐throughput screening campaign was successful, with a determined Z' factor of 0.57 ∼ 0.60. […] At the end, 1392 compounds were identified for high inhibition (>80%) of the GLK-induced NF-κB luciferase activity of CHO‐GLK‐Luc cells. […]
(§1) Figure 3 Verteporfin (C1) blocks the AhR–ROR-γt complex in human autoimmune T cells. […] D) Quantification of the PLA signals shown in panel C. *P < 0.05, ***P < 0.001 (2-tailed Student’s t test).

AhR–ROR-γt complex = assay: In situ proximity ligation assay in peripheral blood T cells from patients with SLE or RA; assay type: cell-based, human; conditions: 5 μM for 30 min; T cells from patients with SLE and RA
Experimental: (§2) Proximity ligation assays (PLAs) were performed using the Duolink In Situ Red Starter Kit (MilliporeSigma) according to the manufacturer’s instructions ([24]). Briefly, cells were incubated with rabbit or mouse primary antibodies for the AhR–plus–ROR-γt pair, followed by species-specific secondary antibodies that are conjugated with oligonucleotides (PLA probes). After ligation and amplification reactions for 100 min, the PLA signals from each pair of PLA probes in close proximity (<40 nm) were visualized as individual red dots by a confocal microscope (TCS SP5II; Leica Microsystems, Buffalo Grove, IL, USA). Red dots represent direct interaction signals.
(§3) After verification of the induction of GLK–AhR–ROR-γt–IL-17A signaling in human SLE T cells, we next studied whether the GLK–AhR–ROR-γt signaling is a therapeutic target for autoimmune diseases. Because there are no known commercial GLK inhibitors, we performed high-throughput screening of 101,200 compounds to identify GLK inhibitors using both cell-based luciferase reporter assays and in vitro kinase assays. […] Nevertheless, the IC50 of verteporfin for MAP4K3-GLK was the lowest one. […]
as §1

[1] = test system: AhR–phosphorylated ROR-γt (Ser-489) complex; assay: as above; assay type: cell-based, human; conditions: 5 μM for 30 min; T cells from patients with SLE and RA
Experimental: as §2, §3, §1

Which “GLK kinase activity in vitro” value (GLK kinase domain) does the source give for verteporfin here?
The value was “efficiently inhibited”.

And the “AhR–ROR-γt complex (PLA signals)” value (AhR–ROR-γt complex)?
The value was “significantly inhibited”.

And the “AhR–phosphorylated ROR-γt complex (PLA signals)” value [1]?
Its value is “significantly inhibited”.
